Data from ChEMBL document CHEMBL1201862, “PubChem BioAssay data set” (2004).
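Protocol summary: plate cells (96-well), add compound at 5 concentrations, incubate 48 h, interpolate endpoints linearly. GI50 is the concentration that inhibits growth by half.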 Calls of active or inactive are those of the source. No stated cut-off is given here; in the data, active = GI50 up to about 1.1 µM and inactive = higher. Where a SMILES comes first, the peptide text is derived from it. [ ]: non-standard residue; d: D form. The star is where a group is joined. NMeAc5c = CNC1(C(=O)O)CCCC1; Boc = CC(C)(C)OC(=O)*; OBn = c1ccc(CO*)cc1

Experiments:
Assay in all cases: DTP human tumour cell line panel, 48 h
HT-29 = test system: HT-29
KM12 = test system: KM12
MCF7 = test system: MCF7
HCT-116 = test system: HCT-116
NCI/ADR-RES = test system: NCI/ADR-RES
MOLT-4 = test system: MOLT-4
SK-OV-3 = test system: SK-OV-3
HOP-62 = test system: HOP-62
CAKI-1 = test system: CAKI-1
SR = test system: SR
MDA-MB-231 = test system: MDA-MB-231
OVCAR-5 = test system: OVCAR-5
HCT-15 = test system: HCT-15
RXF 393 = test system: RXF 393
NCI-H522 = test system: NCI-H522
HOP-92 = test system: HOP-92
PC-3 = test system: PC-3
Hs-578T = test system: Hs-578T
NCI-H460 = test system: NCI-H460
SF-539 = test system: SF-539

Row | SMILES | GI50 (HT-29) | GI50 (KM12) | GI50 (MCF7) | GI50 (HCT-116) | GI50 (NCI/ADR-RES) | GI50 (MOLT-4) | GI50 (SK-OV-3) | GI50 (HOP-62) | GI50 (CAKI-1) | GI50 (SR) | GI50 (MDA-MB-231) | GI50 (OVCAR-5) | GI50 (HCT-15) [µM] | GI50 (RXF 393) | GI50 (NCI-H522) | GI50 (HOP-92) | GI50 (PC-3) | GI50 (Hs-578T) | GI50 (NCI-H460) | GI50 (SF-539)
1 | CC(=O)c1ccc2c3c1[C@@H]1O[C@@H]1c1cccc(c1-3)[C@@H]1O[C@H]21 | 5.55 µM (inactive) | 7.52 µM (inactive) | 4 µM (inactive) | 4.54 µM (inactive) | 13.7 µM (inactive) | 14.1 µM (inactive) | 28.6 µM (inactive) | 13.7 µM (inactive) | 4.72 µM (inactive) | > 100 µM (inactive) | 17.7 µM (inactive) | 17.7 µM (inactive) | 3.44 | 11.5 µM (inactive) | 5.4 µM (inactive) | 13.3 µM (inactive) | 17.3 µM (inactive) | 14.9 µM (inactive) | – | –
2 | S=c1sc2c(s1)SCCCCSCCCCSc1sc(=S)sc1SCCCCSCCCCS2 | > 100 µM (inactive) | > 100 µM (inactive) | > 100 µM (inactive) | > 100 µM (inactive) | > 100 µM (inactive) | > 100 µM (inactive) | > 100 µM (inactive) | > 100 µM (inactive) | > 100 µM (inactive) | > 100 µM (inactive) | > 100 µM (inactive) | > 100 µM (inactive) | > 100 | – | > 100 µM (inactive) | – | > 100 µM (inactive) | 30.2 µM (inactive) | > 100 µM (inactive) | > 100 µM (inactive)
3 | Oc1ccc(/C=C/c2cccc(/C=C/c3ccc(O)c(O)c3)n2)cc1O | 10.8 µM (inactive) | 8.91 µM (inactive) | 10.2 µM (inactive) | 5.98 µM (inactive) | 5.48 µM (inactive) | 3.27 µM (inactive) | 16.1 µM (inactive) | 22.2 µM (inactive) | 13.8 µM (inactive) | 3.49 µM (inactive) | 25.5 µM (inactive) | 9.95 µM (inactive) | 22.7 | – | – | 11.2 µM (inactive) | 17.5 µM (inactive) | 54.5 µM (inactive) | 5.57 µM (inactive) | 3.02 µM (inactive)
4 | O=c1[nH]c(=O)n(C2OC(CO)C(O)C2O)cc1OCCCc1ccccc1 (stereo not given) | > 100 µM (inactive) | > 100 µM (inactive) | > 100 µM (inactive) | > 100 µM (inactive) | > 100 µM (inactive) | > 100 µM (inactive) | > 100 µM (inactive) | > 100 µM (inactive) | > 100 µM (inactive) | > 100 µM (inactive) | > 100 µM (inactive) | > 100 µM (inactive) | > 100 | > 100 µM (inactive) | – | – | > 100 µM (inactive) | > 100 µM (inactive) | > 100 µM (inactive) | > 100 µM (inactive)
5 | N#Cc1ccc(C2NN=CC23C(=O)c2ccccc2OC3c2ccccc2)cc1 (stereo not given) | 31.7 µM (inactive) | 36.4 µM (inactive) | 34.2 µM (inactive) | 20.5 µM (inactive) | 31.5 µM (inactive) | 22.3 µM (inactive) | 31.8 µM (inactive) | 54.6 µM (inactive) | 34 µM (inactive) | 24 µM (inactive) | 57.4 µM (inactive) | 45.7 µM (inactive) | 25.4 | 15 µM (inactive) | 24.2 µM (inactive) | – | 29.7 µM (inactive) | 30.5 µM (inactive) | 27.4 µM (inactive) | 42.2 µM (inactive)
6 | COC(=O)C1CC(C=[N+](C)C)=C(SC)N1 (stereo not given) | > 100 µM (inactive) | > 100 µM (inactive) | > 100 µM (inactive) | > 100 µM (inactive) | > 100 µM (inactive) | > 100 µM (inactive) | > 100 µM (inactive) | > 100 µM (inactive) | > 100 µM (inactive) | > 100 µM (inactive) | > 100 µM (inactive) | > 100 µM (inactive) | > 100 | > 100 µM (inactive) | > 100 µM (inactive) | > 100 µM (inactive) | > 100 µM (inactive) | > 100 µM (inactive) | 98.2 µM (inactive) | –
7 | ClC1(Cl)C2CCOC21n1cnc2ccccc21 (stereo not given) | > 100 µM (inactive) | > 100 µM (inactive) | > 100 µM (inactive) | > 100 µM (inactive) | > 100 µM (inactive) | > 100 µM (inactive) | > 100 µM (inactive) | > 100 µM (inactive) | > 100 µM (inactive) | > 100 µM (inactive) | > 100 µM (inactive) | > 100 µM (inactive) | > 100 | > 100 µM (inactive) | 14.6 µM (inactive) | – | > 100 µM (inactive) | > 100 µM (inactive) | – | > 100 µM (inactive)
8 | CCOC(=O)c1c(-c2ccc(Cl)cc2)c(C#N)c(=S)n(C2OC(CO)C(O)C(O)C2O)c1-c1ccccc1 (stereo not given) | 17.9 µM (inactive) | 34.5 µM (inactive) | 22.3 µM (inactive) | 18.7 µM (inactive) | 46.9 µM (inactive) | 13.5 µM (inactive) | 28.3 µM (inactive) | 20.3 µM (inactive) | 29.8 µM (inactive) | 33.1 µM (inactive) | 31.2 µM (inactive) | 21.8 µM (inactive) | 29.9 | 23 µM (inactive) | – | 18.9 µM (inactive) | 19.9 µM (inactive) | 24.2 µM (inactive) | 26.9 µM (inactive) | 19.5 µM (inactive)
9 | C=CCN1C[C@H](C)N([C@H](c2ccc(C(=O)N(CC)CC)cc2)c2cccc(OC)c2)C[C@H]1C [SNC-80] | 27.5 µM (inactive) | 50.8 µM (inactive) | 39.1 µM (inactive) | 42.7 µM (inactive) | 39.4 µM (inactive) | 27.9 µM (inactive) | 75.2 µM (inactive) | 74.1 µM (inactive) | > 100 µM (inactive) | 39.5 µM (inactive) | 77.8 µM (inactive) | > 100 µM (inactive) | 70.3 | – | 36.3 µM (inactive) | 5.11 µM (inactive) | 31.8 µM (inactive) | 26 µM (inactive) | – | 51.5 µM (inactive)
10 | CCC1(C)C=Cc2c(cc(O)c3c(=O)c4ccccc4n(C)c23)O1 (stereo not given) | > 10 µM (inactive) | > 10 µM (inactive) | > 10 µM (inactive) | > 10 µM (inactive) | > 10 µM (inactive) | > 10 µM (inactive) | > 10 µM (inactive) | > 10 µM (inactive) | 3.26 µM (inactive) | – | > 10 µM (inactive) | > 10 µM (inactive) | > 10 | > 10 µM (inactive) | > 10 µM (inactive) | > 10 µM (inactive) | > 10 µM (inactive) | > 10 µM (inactive) | > 10 µM (inactive) | > 10 µM (inactive)
11 | CCCCCCCCCCCCOc1ccc(/C=C/C2=[N+](CCCl)CCO2)cc1 | > 100 µM (inactive) | 38 µM (inactive) | 54.2 µM (inactive) | 15.8 µM (inactive) | 46.1 µM (inactive) | 25 µM (inactive) | > 100 µM (inactive) | > 100 µM (inactive) | > 100 µM (inactive) | 19.6 µM (inactive) | 25.1 µM (inactive) | > 100 µM (inactive) | 31.7 | – | 17 µM (inactive) | 25.1 µM (inactive) | 58.1 µM (inactive) | 56.6 µM (inactive) | 43.4 µM (inactive) | > 100 µM (inactive)
12 | CN(C(=O)C(Cc1ccccc1)NC(=O)OC(C)(C)C)C1(C(=O)NC(Cc2ccccc2)C(=O)OCc2ccccc2)CCCC1 (stereo not drawn) (Boc-Phe-[NMeAc5c]-Phe-OBn; configuration not given here) | 22.3 µM (inactive) | 36.6 µM (inactive) | 32.1 µM (inactive) | 30.6 µM (inactive) | 27.7 µM (inactive) | 26.9 µM (inactive) | 0.653 µM (active) | 38.5 µM (inactive) | – | 22.2 µM (inactive) | 23.4 µM (inactive) | > 100 µM (inactive) | 28.7 | 44.7 µM (inactive) | – | 53.7 µM (inactive) | 28.4 µM (inactive) | 41.3 µM (inactive) | 23.6 µM (inactive) | 74.3 µM (inactive)
13 | CC1CN=C(N(Cc2ccc(F)cc2)C(=O)Nc2ccc(Cl)cc2)S1 (stereo not given) | 17.8 µM (inactive) | 14 µM (inactive) | 28.8 µM (inactive) | 22.3 µM (inactive) | 12.5 µM (inactive) | 27.7 µM (inactive) | > 100 µM (inactive) | 93.3 µM (inactive) | 5.32 µM (inactive) | 26.5 µM (inactive) | 32.3 µM (inactive) | > 100 µM (inactive) | 6.22 | – | – | – | 23 µM (inactive) | 51.3 µM (inactive) | 18.7 µM (inactive) | 30.5 µM (inactive)
14 | O=P(Oc1ccc(Cl)cc1)(Oc1ccc(Cl)cc1)N1CC1 | > 10 µM (inactive) | > 10 µM (inactive) | > 10 µM (inactive) | – | > 10 µM (inactive) | > 10 µM (inactive) | > 10 µM (inactive) | > 10 µM (inactive) | – | > 10 µM (inactive) | > 10 µM (inactive) | > 10 µM (inactive) | > 10 | – | – | – | > 10 µM (inactive) | > 10 µM (inactive) | > 10 µM (inactive) | > 10 µM (inactive)
15 | COc1ccc(Nc2cc(O)nc(O)n2)cc1 | > 100 µM (inactive) | > 100 µM (inactive) | > 100 µM (inactive) | > 100 µM (inactive) | > 100 µM (inactive) | > 100 µM (inactive) | – | > 100 µM (inactive) | – | > 100 µM (inactive) | > 100 µM (inactive) | > 100 µM (inactive) | > 100 | 24.7 µM (inactive) | – | > 100 µM (inactive) | > 100 µM (inactive) | > 100 µM (inactive) | > 100 µM (inactive) | > 100 µM (inactive)
